The text below walks through data of PubChem BioAssay (NCI).

Experiment in all cases: DTP human tumour cell line panel, 48 h
Test [1] relates to HOP-62 NSCLC.
Test [2] concerns UACC-257 melanoma.
The subject of test [3] is MALME-3M melanoma.
Test [4] deals with HCT-116 colon.
Test [5] concerns MDA-MB-231 breast.
For test [6], the system named is BT-549 breast.
For test [7], the system named is IGROV1 ovarian.
Test [8] deals with U251 CNS.
The subject of test [9] is NCI-H460 lung.
Test [10] deals with UO-31 renal.

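Cultured in 96-well plates, cells were exposed to test compound for 48 hours across five concentrations. TGI marks complete inhibition of growth.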

As to `CCOC(=O)C1=C(C)N(c2ccc(OC)cc2)C2(O)C=CC(=O)C3=C(O)c4ccccc4C(=O)C312` (stereo unspecified), the TGI in test [1] was 30.1 µM; in test [2], 31.2 µM; in test [3], 1.17 µM; in test [4], 23.4 µM; in [5], 34.8 µM; in test [6], 29 µM. The TGI in test [7] came to 15.6 µM; in test [8], 23.5 µM; in [9], 28 µM; in test [10] it was 31 µM.

With `CNc1ncc(-c2nnnn2-c2ccccc2)c(CN(C)C)n1`, the TGI in test [1], in test [2], in test [3], in [4], in test [5] and in test [6] was greater than 100 µM throughout. Moreover, the TGI in test [7], in test [8], in [9] and in test [10] was greater than 100 µM throughout.

On to `CC1CC(=O)N(N(C)C)C(C#N)(C#N)C1(C#N)C#N` (stereo unspecified), for which the TGI in test [1] is greater than 60.6 µM; in test [2], 29.8 µM; in [3] it was 29.3 µM; in test [4], 51.7 µM; in test [5] it was 28.9 µM; in test [6], 32.7 µM. Further, the values for the TGI in [7], in test [8] and in [10] were 40 µM, 42.4 µM and 31.3 µM, respectively.

Consider `CC(=O)Oc1ccc(/C=C/C(=O)O[C@@H](C(=O)O)[C@@H](OC(=O)/C=C/c2ccc(OC(C)=O)c(OC(C)=O)c2)C(=O)O)cc1OC(C)=O`, for which the TGI in test [1], in [2], in [3], in test [4], in [5] and in test [6] was greater than 100 µM in each case. Besides, the TGI in test [7], in test [8], in test [9] and in [10] was greater than 100 µM in each case.

Regarding `C[Si](C)(c1ccccc1)[C@H]1CCCC=C1CCNC1c2ccccc2CCc2ccccc21`, the TGI in [1], in [2], in test [3], in test [4], in test [5] and in [6] was greater than 100 µM each time. In addition, the TGI in test [7], in [8], in test [9] and in test [10] was greater than 100 µM throughout.

In the case of `CSc1c(C(=O)Nc2ccc(Cl)cc2)c(N)n(N)c(=O)c1C#N`, the total growth inhibition concentration (TGI) in test [2], in [3], in test [4], in test [5], in test [6] and in [8] was greater than 100 µM each time. The TGI in [9] and in [10] was greater than 100 µM in each case.

As for `C/C1=C\C=C(\C(C)C)CC/C(C(=O)O)=C\CC/C(C)=C/CC1`, the TGI in [1] came to 48 µM; in test [2], 56.1 µM; in test [3], 52.2 µM; in test [4] it was 29.8 µM; in test [5], 39.2 µM; in test [6], 79.9 µM. Further, the TGI was greater than 100 µM in test [7], 30.5 µM in test [8], 34.5 µM in test [9] and 53.8 µM in test [10].

Turning to `CN(C)c1cc[n+](-c2nc(/N=C(\[O-])C(F)(F)F)nc3c2ncn3C2CC(O)C(CO)O2)cc1` (stereo unspecified), the TGI in test [1], in [3], in test [4], in test [5], in test [6] and in test [7] was greater than 100 µM throughout. Moreover, the TGI in [8], in test [9] and in test [10] was greater than 100 µM in each case.

On to `COc1cc(-c2ccccc2N)c2cccnc2c1OC`, for which the TGI in [1] was 19 µM; in test [2] it was 24.8 µM; in test [3], 30.4 µM; in test [4], 11.9 µM; in test [5], 20.6 µM; in [6], 22.2 µM. Also, the TGI was found to be 11.1 µM in [7], 17.7 µM in [8], 43.4 µM in [9] and 15 µM in [10].

As to `COc1ccc(-n2sc3ncccc3c2=O)cc1`, the total growth inhibition concentration (TGI) in [1] was 56.7 µM; in test [2] it was 34.2 µM; in [3], 30.9 µM; in test [4], 32.6 µM; in test [5], 45.1 µM; in test [6], 38.6 µM. In addition, the TGI in [7] is 61.2 µM; in test [8], 44.6 µM; in [9], greater than 100 µM; in test [10], 33.7 µM.

For the compound `O=C(OCC(Cl)(Cl)Cl)O[C@@H]1CCCC1(c1ccccc1)c1ccccc1`, the TGI in [1], in [2], in [4], in test [5], in test [6] and in test [7] was greater than 100 µM in each case. The TGI in [8], in test [9] and in test [10] was greater than 100 µM in each case.

In the case of `Fc1cccc(F)c1C1SCc2nc3ccc(Cl)cc3n21` (stereo unspecified), the TGI in test [1], in test [2], in test [3], in test [4], in test [5] and in test [6] was greater than 100 µM each time. For the same compound, the TGI in [7], in test [8], in [9] and in test [10] was greater than 100 µM each time.

Consider `C[Si](C)(C)C1=C([Si](C)(C)C)C(Cl)(Cl)C1=O`, for which the TGI in test [1] is 41.4 µM; in test [2] it was 6.95 µM; in [3] it was 4.22 µM; in test [4], 7.02 µM; in [5], 7.85 µM; in test [6], 16.1 µM. Also, the TGI in test [7] turned out to be 16.1 µM; in [8], 11.3 µM; in test [9], 32.2 µM; in test [10], 8.45 µM.

Turning to `CCN(CC)c1ccc(/C=C/C=C2C(=O)NC(=S)NC2=O)cc1`, the TGI in [1] is 47.9 µM; in [2], greater than 100 µM; in test [3] it was greater than 100 µM; in [4], greater than 100 µM; in [5], greater than 78.6 µM; in test [6], greater than 75.4 µM. Further, the TGI in test [7] is greater than 100 µM; in test [8] it was greater than 80.8 µM; in test [9] it was greater than 100 µM; in [10], greater than 100 µM.

As for `COc1ccc(C(C2=C(O)COC2=O)c2cc3c(cc2O)OCO3)cc1OC` (stereo unspecified), the TGI in [1], in test [2], in test [3], in [4], in test [5] and in test [6] was greater than 100 µM in each case. The TGI in test [7], in test [9] and in [10] was greater than 100 µM each time.

As to `COc1ccc(/C=C/C2=NN(c3cccc(S(=O)(=O)O)c3)C3(C2)SCC(=O)N3c2nc3ccccc3s2)cc1` (stereo unspecified), the TGI in test [2], in test [3], in test [4], in test [5], in test [6] and in [7] was greater than 100 µM throughout. The TGI in test [8], in [9] and in test [10] was greater than 100 µM each time.

For `Cc1nc2c(=S)n(C)ncc2[nH]1`, the TGI in [1] is greater than 100 µM; in [2] it was greater than 100 µM; in [3], 69.7 µM; in test [4], greater than 100 µM; in [5], greater than 100 µM; in test [6], greater than 100 µM. The TGI in [7], in test [8] and in test [10] was greater than 100 µM each time.

With `C[C@H]1S[C@H](c2c(Cl)cccc2Cl)N2Cc3ccccc3N=C12`, the TGI in test [1] is 32.6 µM; in [2], 45.6 µM; in [4], 16.3 µM; in test [5] it was greater than 100 µM; in test [6] it was greater than 100 µM; in test [7], 26.1 µM. In addition, the TGI in test [8] is greater than 100 µM; in [9], 32.4 µM; in test [10], 26.3 µM.

`CC(=O)N1CCn2c1nc1cc(Cl)ccc12`: the concentration for total growth inhibition (TGI) is 40 µM in test [1]; greater than 100 µM in test [2]; greater than 100 µM in test [3]; greater than 100 µM in test [4]; greater than 100 µM in test [5]; greater than 100 µM in test [6]. Besides, the TGI in test [7], in [8] and in test [9] was greater than 100 µM throughout.

For the compound `O=C(CCc1ccccc1)ON1C(=S)C(c2ccccc2)(c2ccccc2)N=C1Sc1ccccc1`, the TGI in test [1], in test [2], in [3], in test [4], in test [5] and in test [6] was greater than 100 µM throughout. Moreover, the figures for the TGI in [7], in [9] and in [10] were 55.5 µM, greater than 100 µM and greater than 100 µM, respectively.

For `O=C(Nc1ccccc1)c1cc(S(=O)(=O)N2CCNNC2=O)c(S)cc1Cl`, the TGI is greater than 100 µM in test [2]; greater than 100 µM in [3]; 95.5 µM in [4]; 95 µM in test [5]; greater than 100 µM in test [6]; greater than 100 µM in test [7]. In addition, the TGI in [8], in test [9] and in [10] was greater than 100 µM each time.

For the compound `COC(=O)c1ccc(Nc2nc3nc[nH]c3c(=O)[nH]2)cc1`, the TGI in test [1], in test [2], in [3], in test [4], in test [5] and in [6] was greater than 100 µM throughout. In addition, the TGI in test [7], in test [8] and in test [9] was greater than 100 µM in each case.

Take `CCCC(CCN)(CCN)[N+](=O)[O-]`: the total growth inhibition concentration (TGI) in test [2], in test [3], in test [4], in [5], in [6] and in [7] was greater than 100 µM throughout. For the same compound, the TGI in [8], in [9] and in [10] was greater than 100 µM each time.

Consider `COc1cc(C2c3cc4c(cc3OC(N3CCNCC3)C2C)OCO4)cc(OC)c1OC` (stereo unspecified), for which the TGI was 27.3 µM in test [1]; greater than 47.9 µM in test [2]; 9.23 µM in test [4]; 2.46 µM in test [5]; 30.2 µM in [6]; 17.5 µM in [7]. The TGI in test [8] was greater than 43.8 µM; in [9], 10.9 µM; in test [10], 15.6 µM.

Consider `CCN(CC)c1ccc2cc(C(=O)Nc3ccccn3)c(=N)oc2c1`, for which the TGI in test [1] is 52.1 µM; in [2] it was greater than 100 µM; in test [3] it was greater than 100 µM; in [4], greater than 100 µM; in [5], greater than 100 µM; in [6] it was greater than 100 µM. Besides, the TGI in test [7], in test [8] and in [9] was greater than 100 µM in each case.

In the case of `CC(C)(C)OC(=O)NCCCCC(NC(=O)c1ccccc1)C(N)=O` (stereo unspecified), the TGI in [1], in test [2], in [3], in test [4], in test [5] and in test [6] was greater than 100 µM each time. Besides, the TGI in test [8], in [9] and in test [10] was greater than 100 µM each time.

For the compound `C[C@@H]1S[C@H](c2c(Cl)cccc2Cl)N2Cc3ccccc3N=C12`, the TGI in test [1], in test [2], in test [4], in test [5], in [6] and in test [7] was greater than 100 µM each time. The TGI in test [8], in test [9] and in [10] was greater than 100 µM throughout.

As for `COc1ccc2oc(=O)c(-c3csc(C)n3)cc2c1`, the TGI in test [1] was 84 µM; in [2] it was greater than 100 µM; in [4], greater than 100 µM; in [5], 68 µM; in test [6], 29.2 µM; in test [7], greater than 100 µM. Further, the TGI in test [8] was 60.9 µM; in test [9], greater than 100 µM; in test [10] it was greater than 100 µM.

The term TGI denotes the concentration at which net growth stops. Low readings indicate greater sensitivity of the cells, high ones lower sensitivity of the cells.
